The results in this text go back to ChEMBL document CHEMBL3045424, “Synthesis and antimalarial activity evaluation of some isoquine analogues” (2011).

In one assay the test system is Plasmodium falciparum. The assay is described as follows: Antimalarial activity against chloroquine-sensitive Plasmodium falciparum 3D7 infected O positive human red blood cells assessed as dead rings and schizonts at 0.4 ug/ml after 40 hr by Giemsa staining. It is filed as functional.
For the compound `CCN(CC)CCCC(C)Nc1ccnc2cc(Cl)ccc12` (stereo not drawn) [CHLOROQUINE], the Activity came out at 68.5%.

A further assay relates to Plasmodium falciparum. As to the kind of experiment: Antimalarial activity against chloroquine-sensitive Plasmodium falciparum 3D7 infected O positive human red blood cells assessed as dead rings and schizonts at 50 ug/ml after 40 hr by Giemsa staining. It is filed as functional.
For the compound `O=C(O)c1ccc(NCc2ccc(Nc3ccnc4cc(Cl)ccc34)cc2O)cc1`, the Activity is reported as 34%.

Take `Oc1ccc(NCc2ccc(Nc3ccnc4cc(Cl)ccc34)cc2O)cc1`: the Activity stood at 28.5%.

`Oc1cc(Nc2ccnc3cc(Cl)ccc23)ccc1CNc1ccc(Br)cc1F`: the Activity came out at 6.5%.

`Oc1cc(Nc2ccnc3cc(Cl)ccc23)ccc1CNC1CCNCC1`: the Activity is reported as 33%.

For the compound `Oc1cc(Nc2ccnc3cc(Cl)ccc23)ccc1CNc1ccc(F)cc1`, the Activity is given as 25.5%. Still for that read-out and setting: in the case of `NC(=O)NCc1ccc(Nc2ccnc3cc(Cl)ccc23)cc1O` it was 24%; in that of `OCCNCc1ccc(Nc2ccnc3cc(Cl)ccc23)cc1O`, 36.5%.
